The values below are quoted from earlier work in patent US9205152B2, “Melt-blended protein composition” (Kimberly-Clark Worldwide, Inc., priority 2010, dated 2015).

For this data set the following is noted: pH prior to incorporation into the composition.

Molecules are shown by their SMILES.

For the compound `OCC(O)CO` [glycerol], the pH entry is recorded as “about 6”.
